Legend:
Format in all cases: in vivo
[1] = test system: SOD1-G93A mouse model of ALS; assay: Survival (day of death) in SOD1-G93A mice
Source text: (§1) Testing can be performed in SOD1-G93A mice as follows. Body weight and grip strength during a hanging wire test can be measured 3 days a week beginning at 90 days of age (presymptomatic). Drug injections can be made immediately after motor testing. Mice can be tested until they reach end-stage as defined by loss of righting reflex for 30 seconds or if they are found dead in their cage. At death, the muscles (soleus, tibialis anterior, and diaphragm) and brains can be harvested for histological analyses. Comparisons of neuromuscular junction innervation and myosin heavy chain isoforms can be made between the treatment groups. Experiments can determine cortical motor neuronal integrity using standard histological methods.
(§2) Experiments were performed to determine the effects of daily sub-anesthetic doses (e.g., less than 100 mg/kg) of ketamine on the SOD1-G93A mouse model of ALS. The method included administering two doses of ketamine (e.g., 10 mg/kg and 30 mg/kg) and a saline vehicle to three groups of SOD1-G93A mice per day for 5 days per week beginning at 90 days of age. The method included measuring body weight, grip strength, and survival.
As shown, treatment with the ketamine compound appears to provide a higher probability of survival for a longer period of time for both the 10 mg/kg and 30 mg/kg dosages (p=0.06; FIG. 2). […]

[2] = test system: SOD1-G93A mouse model of ALS; assay: Latency between 20% loss of body weight and death in SOD1-G93A mice; conditions: for latency between 20% loss of body weight and death: FIG. 3 (vehicle about 2 days)
Experimental: as §2
Additionally, the latency in days between the day in which each mouse reached 80% of its initial body weight (i.e., 20% reduction) and the day of death as defined above was calculated. […] Accordingly, higher dosages may still provide for longer latency of life, or longer life expectancy.

[3] = test system: SOD1-G93A mouse model of ALS; assay: Grip strength, hanging wire test, SOD1-G93A mice; conditions: 10 mg/kg and 30 mg/kg vs saline vehicle, 5 days per week from 90 days of age; data not shown
Source text: as §1, §2

[4] = test system: SOD1-G93A mouse model of ALS; assay: Body weight in SOD1-G93A mice under ketamine
Source text: as §1, §2
The three groups (e.g., 12 mice per group with intraperitoneal injection): vehicle (e.g., 0), 10 mg/kg (e.g., 10), and 30 mg/kg (e.g., 30) are shown (p=0.06). […] As such, the 10 mg/kg dosage may be useful for ALS patients. […] Accordingly, increasing the amount of ketamine administered may increase the effects described herein. Any increase in life (e.g., probability of survival) can be beneficial, which may be accomplished by treatment with the ketamine compound.

`CNC1(c2ccccc2Cl)CCCCC1=O` (stereo not shown) [ketamine, 2-(2-chlorophenyl)-2-(methylamino)cyclohexan-1-one] was tested, and the “probability of survival (day of death: loss of righting reflex for 30 seconds or found dead)” value ([1]; 10 mg/kg vs vehicle, FIG. 2, overall p=0.06) was “some improvement over the vehicle”, the “probability of survival (day of death: loss of righting reflex for 30 seconds or found dead)” value ([1]; 30 mg/kg vs vehicle, FIG. 2, p<0.05) was “survived significantly longer than the vehicle-treated group” and the “longer life expectancy than no treatment” value ([2]; 10 mg/kg vs vehicle) was “about 4 days”. For the same molecule, the “latency between 20% loss of body weight and death” value ([2]; 10 mg/kg) was “about 6 days”, the “longer life expectancy over the 10 mg/kg treatment” value ([2]; 30 mg/kg vs 10 mg/kg) was “about 4 days” and the “longer life expectancy than no treatment” value ([2]; 30 mg/kg vs vehicle) was “about 8 days”. For the same molecule, the “latency between 20% loss of body weight and death” value ([2]; 30 mg/kg) was “about 10 days”, the “latency between 20% loss of body weight and death, effect of dose” value ([2]; vehicle, 10 and 30 mg/kg, ANOVA p<0.05, FIG. 3) was “statistically significant dose-dependent increase” and the “effects on grip strength using the hanging wire test” value [3] was “no significant effects”. For the same molecule, the “effects on body weight” value ([4]; 10 mg/kg and 30 mg/kg vs saline vehicle, 5 days per week from 90 days of age, data not shown) was “no significant effects”, the “probability of survival curve for day body weight fell below 80%” value ([4]; 10 mg/kg intraperitoneal vs vehicle, FIG. 1) was “improvement in the probability of survival” and the “loss of body weight (muscle mass), trend in survival curve” value ([4]; 30 mg/kg intraperitoneal vs 10 mg/kg or without ketamine, FIG. 1) was “delays loss of body weight (muscle mass) for a longer period of time”. The “survival analysis: day in which body weight fell below 80%, difference between the groups” value ([4]; vehicle, 10 mg/kg, 30 mg/kg, intraperitoneal, 12 mice per group, FIG. 1, p=0.06) was “no significant difference”.

Source: patent US12128012B2, “Ketamine treatment for amyotrophic lateral sclerosis” (University of Kansas, priority 2020, dated 2024)
